Patent US12091411B2, “IRAK degraders and uses thereof” (Kymera Therapeutics, Inc., priority 2022, dated 2024)
Read-outs that look alike come from different tables or passages of the source.

Molecular target: T1, IRAK4 (Homo sapiens, UniProt Q9NWZ3)
T1 construct: Degradation of IRAK4 in OCI-LY10 was quantitatively measured using Meso Scale Discovery technology; endogenous in cells; host or cells: OCI-LY10
T1 sequence (Q9NWZ3 1-460): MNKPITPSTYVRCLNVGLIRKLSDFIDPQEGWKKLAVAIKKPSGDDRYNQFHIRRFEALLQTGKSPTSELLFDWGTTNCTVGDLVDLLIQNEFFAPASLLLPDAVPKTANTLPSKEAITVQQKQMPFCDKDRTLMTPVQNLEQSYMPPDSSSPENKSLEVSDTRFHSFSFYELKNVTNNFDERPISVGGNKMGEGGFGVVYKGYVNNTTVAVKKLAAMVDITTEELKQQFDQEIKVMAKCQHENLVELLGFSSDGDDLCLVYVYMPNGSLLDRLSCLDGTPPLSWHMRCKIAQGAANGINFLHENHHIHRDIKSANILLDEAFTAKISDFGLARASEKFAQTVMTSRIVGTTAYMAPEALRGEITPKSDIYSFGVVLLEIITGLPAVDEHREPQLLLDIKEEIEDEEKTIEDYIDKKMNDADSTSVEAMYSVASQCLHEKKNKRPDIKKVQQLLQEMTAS
Assay: IRAK4 MSD Degradation in OCI-LY10
Assay type: cell-based
Conditions: OCI-LY10 cells, MSD
Method in brief: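 DC50, from a three-parameter logistic fit and reported as letter bins A (<0.01 μM), B, C, D (>0.2 μM or not tested), reflects IRAK4 loss measured by MSD electrochemiluminescence in OCI-LY10 lysates. Treatment: 8 doses, 1:3 steps, top 1 to 10 μM, 4 to 24 h, 37 °C.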

[1] = 4 hrs incubation, read-out: IRAK4 degradation in OCI-LY10 at 4 hrs: DC50
[2] = 24 hrs incubation, read-out: IRAK4 degradation in OCI-LY10 at 24 hrs: DC50

Structure (SMILES) | DC50 [1] | DC50 [2]
Cc1cccc(C(=O)Nc2ccc3nn([C@H]4CC[C@H](CN5CC[C@H](c6cccc7c6n(C)c(=O)n7C6CCC(=O)NC6=O)[C@H](F)C5)CC4)cc3c2)n1 (stereo partly drawn) [I-623] | > 200 nM | > 200 nM
Cn1c(=O)n(C2CCC(=O)NC2=O)c2cccc([C@H]3CCN(C[C@H]4CC[C@H](n5cc6cc(NC(=O)c7cccc(C#N)n7)ccc6n5)CC4)C[C@H]3F)c21 (stereo partly drawn) [I-627] | > 200 nM | > 200 nM
Cn1c(=O)n(C2CCC(=O)NC2=O)c2cccc([C@@H]3CCN(C[C@H]4CC[C@H](n5cc6cc(NC(=O)c7cccc(C(F)F)n7)ccc6n5)CC4)C[C@H]3F)c21 (stereo partly drawn) [I-629] | > 200 nM | < 10 nM
Cn1c(=O)n(C2CCC(=O)NC2=O)c2cccc([C@H]3CCN(C[C@H]4CC[C@H](n5cc6cc(NC(=O)c7cccc(C(F)F)n7)ccc6n5)CC4)C[C@@H]3F)c21 (stereo partly drawn) [I-630] | > 200 nM | > 200 nM
Cc1cccc(C(=O)Nc2cc3cn([C@H]4CC[C@H](CN5CC[C@@H](c6cccc7c6n(C)c(=O)n7C6CCC(=O)NC6=O)[C@@H](F)C5)CC4)nc3cn2)n1 (stereo partly drawn) [I-632] | > 200 nM | > 200 nM
Cc1cccc(C(=O)Nc2cc3cn([C@H]4CC[C@H](CN5CC[C@@H](c6cccc7c6n(C)c(=O)n7C6CCC(=O)NC6=O)[C@H](F)C5)CC4)nc3cn2)n1 (stereo partly drawn) [I-633] | > 200 nM | < 10 nM
Cc1cccc(C(=O)Nc2cc3cn([C@H]4CC[C@H](CN5CC[C@H](c6cccc7c6n(C)c(=O)n7C6CCC(=O)NC6=O)[C@@H](F)C5)CC4)nc3cn2)n1 (stereo partly drawn) [I-634] | > 200 nM | > 200 nM
Cn1c(=O)n(C2CCC(=O)NC2=O)c2cccc([C@@H]3CCN(C[C@H]4CC[C@H](n5cc6cc(NC(=O)c7cccc(C#N)n7)ncc6n5)CC4)C[C@@H]3F)c21 (stereo partly drawn) [I-636] | > 200 nM | > 200 nM
Cn1c(=O)n(C2CCC(=O)NC2=O)c2cccc([C@H]3CCN(C[C@H]4CC[C@H](n5cc6cc(NC(=O)c7cccc(C#N)n7)ncc6n5)CC4)C[C@H]3F)c21 (stereo partly drawn) [I-639] | > 200 nM | > 200 nM
Cn1c(=O)n(C2CCC(=O)NC2=O)c2cccc([C@@H]3CCN(C[C@H]4CC[C@H](n5cc6cc(NC(=O)c7cccc(C(F)F)n7)ncc6n5)CC4)C[C@@H]3F)c21 (stereo partly drawn) [I-640] | > 200 nM | > 200 nM
Cn1c(=O)n(C2CCC(=O)NC2=O)c2cccc([C@@H]3CCN(C[C@H]4CC[C@H](n5cc6cc(NC(=O)c7cccc(C(F)F)n7)ncc6n5)CC4)C[C@H]3F)c21 (stereo partly drawn) [I-641] | > 200 nM | < 10 nM
Cn1c(=O)n(C2CCC(=O)NC2=O)c2cccc([C@H]3CCN(C[C@H]4CC[C@H](n5cc6cc(NC(=O)c7cccc(C(F)F)n7)ncc6n5)CC4)C[C@H]3F)c21 (stereo partly drawn) [I-643] | > 200 nM | > 200 nM
Cc1cccc(C(=O)Nc2cc3cn([C@H]4CC[C@H](CN5CC[C@@H](c6cccc7c6n(C)c(=O)n7C6CCC(=O)NC6=O)[C@@H](F)C5)CC4)nc3cc2C(C)(C)O)n1 (stereo partly drawn) [I-644] | > 200 nM | > 200 nM
Cc1cccc(C(=O)Nc2cc3cn([C@H]4CC[C@H](CN5CC[C@@H](c6cccc7c6n(C)c(=O)n7C6CCC(=O)NC6=O)[C@H](F)C5)CC4)nc3cc2C(C)(C)O)n1 (stereo partly drawn) [I-645] | > 200 nM | < 10 nM
Cc1cccc(C(=O)Nc2cc3cn([C@H]4CC[C@H](CN5CC[C@H](c6cccc7c6n(C)c(=O)n7C6CCC(=O)NC6=O)[C@@H](F)C5)CC4)nc3cc2C(C)(C)O)n1 (stereo partly drawn) [I-646] | > 200 nM | > 200 nM
Cn1c(=O)n(C2CCC(=O)NC2=O)c2cccc([C@@H]3CCN(C[C@H]4CC[C@H](n5cc6cc(NC(=O)c7cccc(C#N)n7)c(C(C)(C)O)cc6n5)CC4)C[C@@H]3F)c21 (stereo partly drawn) [I-648] | > 200 nM | > 200 nM
Cn1c(=O)n(C2CCC(=O)NC2=O)c2cccc([C@@H]3CCN(C[C@H]4CC[C@H](n5cc6cc(NC(=O)c7cccc(C#N)n7)c(C(C)(C)O)cc6n5)CC4)C[C@H]3F)c21 (stereo partly drawn) [I-649] | > 200 nM | < 10 nM
Cn1c(=O)n(C2CCC(=O)NC2=O)c2cccc([C@H]3CCN(C[C@H]4CC[C@H](n5cc6cc(NC(=O)c7cccc(C#N)n7)c(C(C)(C)O)cc6n5)CC4)C[C@H]3F)c21 (stereo partly drawn) [I-651] | > 200 nM | > 200 nM
Cn1c(=O)n(C2CCC(=O)NC2=O)c2cccc([C@@H]3CCN(C[C@H]4CC[C@H](n5cc6cc(NC(=O)c7cccc(C(F)F)n7)c(C(C)(C)O)cc6n5)CC4)C[C@H]3F)c21 (stereo partly drawn) [I-653] | > 200 nM | < 10 nM
Cn1c(=O)n(C2CCC(=O)NC2=O)c2cccc([C@H]3CCN(C[C@H]4CC[C@H](n5cc6cc(NC(=O)c7cccc(C(F)(F)F)n7)ncc6n5)CC4)C[C@@H]3F)c21 (stereo partly drawn) [I-657] | > 200 nM | > 200 nM
Cn1c(=O)n(C2CCC(=O)NC2=O)c2cccc(N3CCN(CC4COC5(C4)CN(C[C@H]4CC[C@H](n6cc7cc(NC(=O)c8cccc(C(F)(F)F)n8)ncc7n6)CC4)C5)CC3)c21 (stereo partly drawn) [I-662] | > 200 nM | > 200 nM

The remaining lines, values ahead:

DC50 [1] | DC50 [2] | Structure (SMILES)
> 200 nM | > 200 nM | Cc1cccc(C(=O)Nc2ccc3nn([C@H]4CC[C@H](CN5CC[C@@H](c6cccc7c6n(C)c(=O)n7C6CCC(=O)NC6=O)[C@H](F)C5)CC4)cc3c2)n1 (stereo partly drawn) [I-621]
> 200 nM | > 200 nM | Cc1cccc(C(=O)Nc2ccc3nn([C@H]4CC[C@H](CN5CC[C@H](c6cccc7c6n(C)c(=O)n7C6CCC(=O)NC6=O)[C@@H](F)C5)CC4)cc3c2)n1 (stereo partly drawn) [I-622]
> 200 nM | > 200 nM | Cn1c(=O)n(C2CCC(=O)NC2=O)c2cccc([C@@H]3CCN(C[C@H]4CC[C@H](n5cc6cc(NC(=O)c7cccc(C#N)n7)ccc6n5)CC4)C[C@@H]3F)c21 (stereo partly drawn) [I-624]
> 200 nM | < 10 nM | Cn1c(=O)n(C2CCC(=O)NC2=O)c2cccc([C@@H]3CCN(C[C@H]4CC[C@H](n5cc6cc(NC(=O)c7cccc(C#N)n7)ccc6n5)CC4)C[C@H]3F)c21 (stereo partly drawn) [I-625]
> 200 nM | > 200 nM | Cn1c(=O)n(C2CCC(=O)NC2=O)c2cccc([C@H]3CCN(C[C@H]4CC[C@H](n5cc6cc(NC(=O)c7cccc(C#N)n7)ccc6n5)CC4)C[C@@H]3F)c21 (stereo partly drawn) [I-626]
> 200 nM | > 200 nM | Cn1c(=O)n(C2CCC(=O)NC2=O)c2cccc([C@@H]3CCN(C[C@H]4CC[C@H](n5cc6cc(NC(=O)c7cccc(C(F)F)n7)ccc6n5)CC4)C[C@@H]3F)c21 (stereo partly drawn) [I-628]
> 200 nM | > 200 nM | Cn1c(=O)n(C2CCC(=O)NC2=O)c2cccc([C@H]3CCN(C[C@H]4CC[C@H](n5cc6cc(NC(=O)c7cccc(C(F)F)n7)ccc6n5)CC4)C[C@H]3F)c21 (stereo partly drawn) [I-631]
> 200 nM | > 200 nM | Cc1cccc(C(=O)Nc2cc3cn([C@H]4CC[C@H](CN5CC[C@H](c6cccc7c6n(C)c(=O)n7C6CCC(=O)NC6=O)[C@H](F)C5)CC4)nc3cn2)n1 (stereo partly drawn) [I-635]
> 200 nM | < 10 nM | Cn1c(=O)n(C2CCC(=O)NC2=O)c2cccc([C@@H]3CCN(C[C@H]4CC[C@H](n5cc6cc(NC(=O)c7cccc(C#N)n7)ncc6n5)CC4)C[C@H]3F)c21 (stereo partly drawn) [I-637]
> 200 nM | < 10 nM | Cn1c(=O)n(C2CCC(=O)NC2=O)c2cccc([C@H]3CCN(C[C@H]4CC[C@H](n5cc6cc(NC(=O)c7cccc(C#N)n7)ncc6n5)CC4)C[C@@H]3F)c21 (stereo partly drawn) [I-638]
> 200 nM | > 200 nM | Cn1c(=O)n(C2CCC(=O)NC2=O)c2cccc([C@H]3CCN(C[C@H]4CC[C@H](n5cc6cc(NC(=O)c7cccc(C(F)F)n7)ncc6n5)CC4)C[C@@H]3F)c21 (stereo partly drawn) [I-642]
> 200 nM | > 200 nM | Cc1cccc(C(=O)Nc2cc3cn([C@H]4CC[C@H](CN5CC[C@H](c6cccc7c6n(C)c(=O)n7C6CCC(=O)NC6=O)[C@H](F)C5)CC4)nc3cc2C(C)(C)O)n1 (stereo partly drawn) [I-647]
> 200 nM | > 200 nM | Cn1c(=O)n(C2CCC(=O)NC2=O)c2cccc([C@H]3CCN(C[C@H]4CC[C@H](n5cc6cc(NC(=O)c7cccc(C#N)n7)c(C(C)(C)O)cc6n5)CC4)C[C@@H]3F)c21 (stereo partly drawn) [I-650]
> 200 nM | > 200 nM | Cn1c(=O)n(C2CCC(=O)NC2=O)c2cccc(C3CCN(C[C@H]4CC[C@H](n5cc6cc(NC(=O)c7cccc(C(F)F)n7)c(C(C)(C)O)cc6n5)CC4)C[C@@H]3F)c21 (stereo partly drawn) [I-652]
> 200 nM | > 200 nM | Cn1c(=O)n(C2CCC(=O)NC2=O)c2cccc([C@H]3CCN(C[C@H]4CC[C@H](n5cc6cc(NC(=O)c7cccc(C(F)F)n7)c(C(C)(C)O)cc6n5)CC4)C[C@@H]3F)c21 (stereo partly drawn) [I-654]
> 200 nM | > 200 nM | Cn1c(=O)n(C2CCC(=O)NC2=O)c2cccc([C@H]3CCN(C[C@H]4CC[C@H](n5cc6cc(NC(=O)c7cccc(C(F)F)n7)c(C(C)(C)O)cc6n5)CC4)C[C@H]3F)c21 (stereo partly drawn) [I-655]
> 200 nM | < 10 nM | Cn1c(=O)n(C2CCC(=O)NC2=O)c2cccc(N3CCN(CC4COC5(C4)CN(C[C@H]4CC[C@H](n6cc(NC(=O)c7cnn8ccc(N9C[C@H]%10C[C@@H]9CO%10)nc78)c(C(F)F)n6)CC4)C5)CC3)c21 (stereo partly drawn) [I-660]
> 200 nM | > 200 nM | Cn1c(=O)n(C2CCC(=O)NC2=O)c2cccc(N3CCN(CC4COC5(C4)CN(C[C@H]4CC[C@H](n6cc7cc(NC(=O)c8cccc(C(F)(F)F)n8)ccc7n6)CC4)C5)CC3)c21 (stereo partly drawn) [I-661]
